Columns and labels:
Assay type in all cases: cell-based
CCRF-CEM = assay: NCI screen, growth of human tumor cells: Leukemia CCRF-CEM; conditions: CCRF-CEM
Procedure, shortened: (§1)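 Percent-growth read-out from the NCI cancer cell screen; data annotated by cancer type and molar concentration, ≥60 points per compound.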

MOLT-4 = assay: NCI screen, growth of human tumor cells: Leukemia MOLT-4; conditions: MOLT-4 (Leukemia), 10^−4 molar
Procedure, shortened: as §1

RPMI-8226 = assay: NCI screen, growth of human tumor cells: Leukemia RPMI-8226; conditions: RPMI-8226, 10^−4 molar
Procedure, shortened: as §1

AS49/ATCC = assay: NCI screen, growth of human tumor cells: Non-Small Cell Lung AS49/ATCC; conditions: A549/ATCC, 10^−4 molar
Procedure, shortened: as §1

HOP-62 = assay: NCI screen, growth of human tumor cells: Non-Small Cell Lung HOP-62; conditions: HOP-62, 10^−4 molar
Procedure, shortened: as §1

NCI-H226 = assay: NCI screen, growth of human tumor cells: Non-Small Cell Lung NCI-H226
Procedure, shortened: as §1

NCI-H522 = assay: NCI screen, growth of human tumor cells: Non-Small Cell Lung NCI-H522; conditions: NCI-H522, 10^−4 molar
Procedure, shortened: as §1

NCI-H322M = assay: NCI screen, growth of human tumor cells: Non-Small Cell Lung NCI-H322M; conditions: NCI-H322M, 10^−4 molar
Procedure, shortened: as §1

HCC-2998 = assay: NCI screen, growth of human tumor cells: HCC-2998 (listed under Non-Small Cell Lung)
Procedure, shortened: as §1

SF-268 = assay: NCI screen, growth of human tumor cells: CNS Cancer SF-268
Procedure, shortened: as §1

SNB-19 = assay: NCI screen, growth of human tumor cells: CNS Cancer SNB-19; conditions: SNB-19, 10^−4 molar
Procedure, shortened: as §1

SF-539 = assay: NCI screen, growth of human tumor cells: CNS Cancer SF-539
Procedure, shortened: as §1

SNB-75 = assay: NCI screen, growth of human tumor cells: CNS Cancer SNB-75
Procedure, shortened: as §1

U-251 = assay: NCI screen, growth of human tumor cells: CNS Cancer U-251
Procedure, shortened: as §1

LOXIMVI = assay: NCI screen, growth of human tumor cells: Melanoma LOXIMVI; conditions: LOXIMVI
Procedure, shortened: as §1

MALME-3M = assay: NCI screen, growth of human tumor cells: Melanoma MALME-3M; conditions: MALME-3M, 10^−4 molar
Procedure, shortened: as §1

SK-MEL-2 = assay: NCI screen, growth of human tumor cells: Melanoma SK-MEL-2; conditions: SK-MEL-2, 10^−4 molar
Procedure, shortened: as §1

SK-MEL-5 = assay: NCI screen, growth of human tumor cells: Melanoma SK-MEL-5; conditions: SK-MEL-5, 10^−4 molar
Procedure, shortened: as §1

UACC-257 = assay: NCI screen, growth of human tumor cells: Melanoma UACC-257; conditions: UACC-257, 10^−4 molar
Procedure, shortened: as §1

UACC-62 = assay: NCI screen, growth of human tumor cells: Melanoma UACC-62
Procedure, shortened: as §1

OVCAR-3 = assay: NCI screen, growth of human tumor cells: Ovarian Cancer OVCAR-3; conditions: OVCAR-3, 10^−4 molar
Procedure, shortened: as §1

OVCAR-5 = assay: NCI screen, growth of human tumor cells: Ovarian Cancer OVCAR-5; conditions: OVCAR-5, 10^−4 molar
Procedure, shortened: as §1

786-0 = assay: NCI screen, growth of human tumor cells: Renal Cancer 786-0; conditions: 786-0 (Renal Cancer), 10^−4 molar
Procedure, shortened: as §1

ACHN = assay: NCI screen, growth of human tumor cells: Renal Cancer ACHN; conditions: ACHN
Procedure, shortened: as §1

TK-10 = assay: NCI screen, growth of human tumor cells: Renal Cancer TK-10; conditions: TK-10, 10^−4 molar
Procedure, shortened: as §1

SN12C = assay: NCI screen, growth of human tumor cells: Renal Cancer SN12C; conditions: SN12C, 10^−4 molar
Procedure, shortened: as §1

UO-31 = assay: NCI screen, growth of human tumor cells: Renal Cancer UO-31; conditions: UO-31, 10^−4 molar
Procedure, shortened: as §1

DU-145 = assay: NCI screen, growth of human tumor cells: Prostate Cancer DU-145; conditions: DV-145, 10^−4 molar
Procedure, shortened: as §1

MCF 7 = assay: NCI screen, growth of human tumor cells: Breast Cancer MCF 7
Procedure, shortened: as §1

BT-549 = assay: NCI screen, growth of human tumor cells: Breast Cancer BT-549; conditions: BT-549, 10^−4 molar
Procedure, shortened: as §1

MDA-MB-435 = assay: NCI screen, growth of human tumor cells: Breast Cancer MDA-MB-435
Procedure, shortened: as §1

CC1=C(CC2S(=O)(=O)OCCOS2(=O)=O)C(=O)c2ccccc2C1=O [NSC 693874, ethylene (3-methyl-1,4-naphtho-2-quinoyl)-1,1-ethanedisulfonate]
% Growth (CCRF-CEM; 10^−4 molar): −49%
% Growth (CCRF-CEM; 10^−5 molar): 28%
percent of growth of human tumor cells (MOLT-4): −51%
% Growth (RPMI-8226): −55%
% Growth (AS49/ATCC): −93%
% Growth (HOP-62): −94%
% Growth (NCI-H226; NCI-H226, 10^−4 molar): −82%
% Growth (NCI-H226; NCI-H226, 10^−5 molar): 48%
% Growth (NCI-H522): −69%
% Growth (NCI-H322M): −100%
% Growth (HCC-2998; HCC-2998, 10^−4 molar): −100%
% Growth (HCC-2998; HCC-2998, 10^−5 molar): 50%
% Growth (SF-268; SF-268, 10^−4 molar): 10%
% Growth (SF-268; SF-268, 10^−5 molar): 49%
% Growth (SNB-19): −92%
% Growth (SF-539; SF-539, 10^−4 molar): −100%
% Growth (SF-539; SF-539, 10^−5 molar): 51%
% Growth (SNB-75; SNB-75, 10^−4 molar): −96%
% Growth (SNB-75; SNB-75, 10^−5 molar): −21%
% Growth (SNB-75; SNB-75, 10^−6 molar): 6%
% Growth (SNB-75; SNB-75, 10^−7 molar): 27%
% Growth (SNB-75; SNB-75, 10^−8 molar): 6%
% Growth (U-251; U251, 10^−4 molar): −25%
% Growth (U-251; U251, 10^−5 molar): 57%
% Growth (LOXIMVI; 10^−4 molar): −95%
% Growth (LOXIMVI; 10^−5 molar): 35%
% Growth (MALME-3M): −78%
% Growth (SK-MEL-2): −85%
% Growth (SK-MEL-5): −100%
% Growth (UACC-257): −100%
% Growth (UACC-62; UACC-62, 10^−4 molar): −92%
% Growth (UACC-62; UACC-62, 10^−5 molar): 48%
% Growth (OVCAR-3): −100%
% Growth (OVCAR-5): −98%
percent of growth of human tumor cells (786-0): −16%
% Growth (ACHN; 10^−4 molar): −100%
% Growth (ACHN; 10^−5 molar): 50%
% Growth (TK-10): −100%
% Growth (SN12C): −100%
% Growth (UO-31): −97%
% Growth (DU-145): −94%
% Growth (MCF 7; MCF7, 10^−4 molar): −83%
% Growth (MCF 7; MCF7, 10^−5 molar): 56%
% Growth (BT-549): −100%
% Growth (MDA-MB-435; MDA-MB-435, 10^−4 molar): −92%
% Growth (MDA-MB-435; MDA-MB-435, 10^−5 molar): 54%

From patent US8124793B2, “Derivatives of ethylene methanedisulfonate as cancer chemotherapeutic agents” (priority 2007, dated 2012)
